How the values were obtained:
[1] = system: complementary RNA; experiment: Melting temperature (Tm) of PNA with complementary RNA; format: binding; details: 140 mM KCl, 10 mM sodium dihydrogen phosphate, 0.1 mM EDTA (pH 7.4); oligomer 0.5 to 1 OD260 per ml
Method: (§1) The melting temperatures were determined using an HP 8452A diode-array spectrophotometer, an HP 89090A Peltier element, and HP Temperature Control Software Rev. B5.1 (from Hewlett Packard). Measurements were taken in 0.5° C./min steps in 140 mM KCl, 10 mM sodium dihydrogen phosphate, 0.1 mM EDTA (pH 7.4) as the buffer. The oligomer concentration was from 0.5 to 1 OD260 per ml.

[2] = system: COS cells; experiment: Cell uptake after fluorescence labeling (fluorescence microscopy); format: cell-based; details: PNA solution 10 μM, 37° C., examined after 2, 4 and 16 hours, C-terminally fluorescein-labeled, compared with labeled PNA-6
Method: COS cells were allowed to grow to confluence in Dulbecco's MEM (DMEM), which had been supplemented with 10% FCS, in 5 cm Petri dishes. The cells were washed twice with serum-free DM EM. An area of approx. 1 cm^2 was scratched out in the middle of the Petri dish using a sterile needle. The PNA solution (10 μM) under investigation was applied in this area. The dish was incubated at 37° C. under a CO2 atmosphere. After 2, 4, and 16 hours, the cells were examined by fluorescence microscopy. For this, the cells were washed four times with serum-free DM EM, covered with a cover slip, and evaluated under the fluorescence microscope or by phase contrast.
In order to investigate the cell uptake, PNA-6 and PNA-13 were labeled as indicated directly below with fluorescein at the C terminus and then examined microscopically.

[3] = system: REH cells; experiment: Inhibiting cell proliferation (cell density); format: cell-based, human; details: 10 μM
Method: The sequence of PNA-13 is directed against the translation start of the Ha-ras mRNA. REH cells (human pre-B leukemia cells, DSM ACC 22) or A549 tumor cells were cultured, at 37° C. and under 5% CO2, in OptiMEM (Gibco BRL) containing 10% fetal calf serum (FCS, GIBCO-BRL). The cell density for the assay was approx. 1×10^6/ml. The PNA-13 (10 μM) was incubated with the cells in 24-well plates. After incubating at 37° C. and under 5% CO2 for 96 hours, the cell density was determined. Mean values for the cell density were determined from 3 individual wells at a given PNA concentration.

[4] = system: complementary DNA; experiment: Melting temperature (Tm) of PNA with complementary DNA; format: binding; details: 140 mM KCl, 10 mM sodium dihydrogen phosphate, 0.1 mM EDTA (pH 7.4); oligomer 0.5 to 1 OD260 per ml
Method: as §1

Substance | Tm (RNA) [1] [°C] | cell uptake [2] | inhibition of cell proliferation ([3]; 96 hours, 37° C., 5% CO2) | inhibition of proliferation compared with a corresponding phosphorothioate oligonucleotide ([3]; after >4 days of incubation) | Tm (DNA) [4] [°C]
Hexadecyl-O-p-{t(oeg) at tcc gtc at}-hex (TATTCCGTCAT; chemistry not fully specified) [PNA-13] | 58.9 | taken up more efficiently into the cells | inhibits proliferation of the REH cells | greater than that brought about by a corresponding phosphorothioate oligonucleotide | 46.7
Ac-HN-tat tcc gtc at-hex [Reference, reference compound] | 56.6 | – | – | – | 41.9
Fluorescein-p-{t(oeg) at tcc gtc at}-hex (TATTCCGTCAT; chemistry not fully specified) [PNA-14] | 56.7 | – | – | – | 42.5
Biotin-p-{t(oeg) at tcc gtc at}-hex [PNA-12] | 57.9 | – | – | – | 43.6
Phosphate-{t(oeg)-at tcc gtc at}-hex (TATTCCGTCAT; chemistry not fully specified) [PNA-6] | 57.5 | – | – | – | 44.0

— patent US6777544B2, “Polyamide nucleic acid derivatives and agents and processes for preparing them” (Aventis Pharma Deutschland GmbH, priority 2000, dated 2004)
